Laboratory results published in patent US20100204203A1, “Chemical Compounds 637: Pyridopyrimidinediones as PDE4 Inhibitors” (priority 2007, published 2010).

Molecular target: recombinant Human Phosphodiesterase B2 (PDE4B2) (Homo sapiens, UniProt Q07343)
Assay: Human Phosphodiesterase B2 Radiometric Assay (yttrium silicate SPA beads, [3H]cyclic AMP)
Format: biochemical
Details: recombinant human PDE4B2, radiometric SPA assay, 8 nM [3H]cyclic AMP; read-out: PDE4B2 pIC50 (converted)
How it was run: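 Read-out is scintillation proximity: yttrium silicate beads (with 18 mM ZnSO4, added to stop the reaction) bind 5′AMP formed from 8 nM [3H]cAMP over 20 min. Beforehand, compound and 0.1 mg/mL enzyme were preincubated 30 min at 30 °C in pH 7.5 HEPES buffer with MgCl2, EGTA and Brij 35; pIC50 values were curve-fitted.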

Chain of recombinant Human Phosphodiesterase B2 (PDE4B2) (Q07343 1-564 isoform Q07343-2): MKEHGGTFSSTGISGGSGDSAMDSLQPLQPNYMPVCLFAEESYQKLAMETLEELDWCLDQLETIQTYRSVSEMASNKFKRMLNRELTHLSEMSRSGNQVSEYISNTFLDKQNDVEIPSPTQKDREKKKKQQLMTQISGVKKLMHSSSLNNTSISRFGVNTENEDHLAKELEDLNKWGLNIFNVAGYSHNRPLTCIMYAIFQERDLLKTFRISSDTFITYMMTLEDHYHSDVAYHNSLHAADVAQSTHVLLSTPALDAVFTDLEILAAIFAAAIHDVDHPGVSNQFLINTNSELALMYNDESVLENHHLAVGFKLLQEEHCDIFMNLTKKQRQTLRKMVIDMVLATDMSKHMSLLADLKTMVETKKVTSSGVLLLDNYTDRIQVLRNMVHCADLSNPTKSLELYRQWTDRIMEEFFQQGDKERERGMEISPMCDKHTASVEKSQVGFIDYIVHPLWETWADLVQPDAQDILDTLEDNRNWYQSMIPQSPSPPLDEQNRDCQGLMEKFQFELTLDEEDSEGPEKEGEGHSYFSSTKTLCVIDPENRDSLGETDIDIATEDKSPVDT

Question: For `CN(C)CCc1ccc(-c2cccc(-n3c(=O)n([C@H]4CC[C@@H](NC(=O)c5cn6cc(F)ccc6n5)CC4)c(=O)c4cc(F)cnc43)c2)cc1` [Example 99, N-{cis-4-[1-{4′-[2-(dimethylamino)ethyl]biphenyl-3-yl}-6-fluoro-2,4-dioxo-1,4-dihydropyrido[2,3-d]pyrimidin-3(2H)-yl]cyclohexyl}-6-fluoroimidazo[1,2-a]pyridine-2-carboxamide], which IC50 is on record?
Answer: 0.126 nM

Question: With `O=C(N[C@H]1CC[C@@H](n2c(=O)c3cc(F)cnc3n(-c3cccc(-c4ccc(CC5CCNCC5)cc4)c3)c2=O)CC1)c1cn2cc(F)ccc2n1` [Example 345, 6-fluoro-N-{cis-4-[6-fluoro-2,4-dioxo-1-[4′-(piperidin-4-ylmethyl)biphenyl-3-yl]-1,4-dihydropyrido[2,3-d]pyrimidin-3(2H)-yl]cyclohexyl}imidazo[1,2-a]pyridine-2-carboxamide] as the compound, how does the IC50 read?
Answer: 0.0316 nM

Question: For `CN(C)C1(C(=O)N[C@H]2CC[C@@H](n3c(=O)c4cc(F)cnc4n(-c4cccc(-c5ccc(CN6CCN(C7CCCC7)CC6)cc5)c4)c3=O)CC2)CC1` [Example 210, N-{cis-4-[1-{4′-[(4-cyclopentylpiperazin-1-yl)methyl]biphenyl-3-yl}-6-fluoro-2,4-dioxo-1,4-dihydropyrido[2,3-d]pyrimidin-3(2H)-yl]cyclohexyl}-1-(dimethylamino)cyclopropane-carboxamide], which IC50 is on record?
Answer: 0.02 nM

Question: Which IC50 does the source give for `CN(C)Cc1ccc(-c2cccc(-n3c(=O)n([C@H]4CC[C@@H](NC(=O)c5cn6cc(F)ccc6n5)CC4)c(=O)c4cc(F)cnc43)c2)c(O)c1` [Example 94, N-{cis-4-[1-{4′-[(dimethylamino)methyl]-2′-hydroxybiphenyl-3-yl}-6-fluoro-2,4-dioxo-1,4-dihydropyrido[2,3-d]pyrimidin-3(2H)-yl]cyclohexyl}-6-fluoroimidazo[1,2-a]pyridine-2-carboxamide] here?
Answer: 0.316 nM

Question: `CCN(CC)CCN(C)Cc1ccc(-c2cccc(-n3c(=O)n([C@H]4CC[C@@H](NC(=O)c5cn6c(n5)CCCC6)CC4)c(=O)c4cc(F)cnc43)c2)cc1` [Example 225, N-{cis-4-[1-(4′-{[[2-(diethylamino)ethyl](methyl)amino]methyl}biphenyl-3-yl)-6-fluoro-2,4-dioxo-1,4-dihydropyrido[2,3-d]pyrimidin-3(2H)-yl]cyclohexyl}-5,6,7,8-tetrahydroimidazo[1,2-a]pyridine-2-carboxamide] was tested. Which IC50 did it give?
Answer: 0.0158 nM

Question: `O=c1c2cc(F)cnc2n(-c2cccc(-c3ccc(CN4CCOCC4)cc3)c2)c(=O)n1[C@H]1CC[C@@H](NCc2cn3cc(F)ccc3n2)CC1` [Example 76, 6-fluoro-3-(cis-4-{[(6-fluoroimidazo[1,2-a]pyridin-2-yl)methyl]amino}cyclohexyl)-1-[4′-(morpholin-4-ylmethyl)biphenyl-3-yl]pyrido[2,3-d]pyrimidine-2,4(1H,3H)-dione ditrifluoroacetic acid] was tested. Which IC50 did it give?
Answer: 0.316 nM

Question: How did the IC50 turn out when `CN(C)C(=O)CN1CCN(Cc2ccc(-c3cccc(-n4c(=O)n([C@H]5CC[C@@H](NC(=O)c6cn7c(n6)CCCC7)CC5)c(=O)c5cc(F)cnc54)c3)cc2)CC1` [Example 137, N-{cis-4-[1-[4′-({4-[2-(dimethylamino)-2-oxoethyl]piperazin-1-yl}methyl)biphenyl-3-yl]-6-fluoro-2,4-dioxo-1,4-dihydropyrido[2,3-d]pyrimidin-3(2H)-yl]cyclohexyl}-5,6,7,8-tetrahydroimidazo[1,2-a]pyridine-2-carboxamide] was run?
Answer: 0.0126 nM

Question: How did the IC50 turn out when `O=c1c2cc(F)cnc2n(-c2cccc(-c3ccc(O)cc3CN3CC[C@H](O)C3)c2)c(=O)n1[C@H]1CC[C@@H](NCc2cn3cc(F)ccc3n2)CC1` [Example 331, 6-fluoro-3-(cis-4-{[(6-fluoroimidazo[1,2-a]pyridin-2-yl)methyl]amino}cyclohexyl)-1-(4′-hydroxy-2′-{[(3S)-3-hydroxypyrrolidin-1-yl]methyl}biphenyl-3-yl)pyrido[2,3-d]pyrimidine-2,4(1H,3H)-dione] was run?
Answer: 0.398 nM

Question: For `O=Cc1ccc(-c2cccc(-n3c(=O)n([C@H]4CC[C@@H](NC(=O)c5cn6cc(F)ccc6n5)CC4)c(=O)c4cc(F)cnc43)c2)cc1` [Example 24, 6-fluoro-N-{cis-4-[6-fluoro-1-(4′-formylbiphenyl-3-yl)-2,4-dioxo-1,4-dihydropyrido[2,3-d]pyrimidin-3(2H)-yl]cyclohexyl}imidazo[1,2-a]pyridine-2-carboxamide.], which IC50 is on record?
Answer: 0.00794 nM

Question: For `O=c1c2cc(F)cnc2n(-c2cccc(-c3ccc(O)cc3CN3CCOCC3)c2)c(=O)n1[C@H]1CC[C@@H](NCc2cn3cc(F)ccc3n2)CC1` [Example 246], which IC50 is on record?
Answer: 0.02 nM

Question: For `C[C@@H]1CN(Cc2cc(O)ccc2-c2cccc(-n3c(=O)n([C@H]4CC[C@@H](NCc5cn6cc(F)ccc6n5)CC4)c(=O)c4cc(F)cnc43)c2)C[C@H](C)O1` [Example 256], which IC50 is on record?
Answer: 0.0158 nM

Question: How did the IC50 turn out when `CC(C)(C)OC(=O)NCc1cccc(-c2cccc(-n3c(=O)n([C@H]4CC[C@@H](NC(=O)c5cn6cc(F)ccc6n5)CC4)c(=O)c4cc(F)cnc43)c2)c1` [Example 18, tert-butyl ({3′-[6-fluoro-3-(cis-4-{[(6-fluoroimidazo[1,2-a]pyridin-2-yl)carbonyl]amino}cyclohexyl)-2,4-dioxo-3,4-dihydropyrido[2,3-d]pyrimidin-1(2H)-yl]biphenyl-3-yl}methyl)carbamate.] was run?
Answer: 0.0631 nM

Question: For `CN(C)CCOc1cc(F)ccc1-c1cccc(-n2c(=O)n([C@H]3CC[C@@H](NC(=O)c4cn5cc(F)ccc5n4)CC3)c(=O)c3cc(F)cnc32)c1` [Example 82, N-{cis-4-[1-{2′-[2-(dimethylamino)ethoxy]-4′-fluorobiphenyl-3-yl}-6-fluoro-2,4-dioxo-1,4-dihydropyrido[2,3-d]pyrimidin-3 (2H)-yl]cyclohexyl}-6-fluoroimidazo[1,2-a]pyridine-2-carboxamide], which IC50 is on record?
Answer: 0.2 nM

Question: How did the IC50 turn out when `O=C(N[C@H]1CC[C@@H](n2c(=O)c3cc(F)cnc3n(-c3cccc(-c4ccc(CN5CCNCC5)cc4Br)c3)c2=O)CC1)c1cn2cc(F)ccc2n1` [Example 229, N-{cis-4-[1-[2′-Bromo-4′-(piperazin-1-ylmethyl)biphenyl-3-yl]-6-fluoro-2,4-dioxo-1,4-dihydropyrido[2,3-d]pyrimidin-3(2H)-yl]cyclohexyl}-6-fluoroimidazo[1,2-a]pyridine-2-carboxamide] was run?
Answer: 0.00631 nM

Question: `CC(=O)N1CCN(Cc2ccc(-c3cccc(-n4c(=O)n([C@H]5CC[C@@H](NC(=O)c6cc(C)n(C)n6)CC5)c(=O)c5cc(F)cnc54)c3)cc2)CC1` [Example 213, N-{cis-4-[1-{4′-[(4-acetylpiperazin-1-yl)methyl]biphenyl-3-yl}-6-fluoro-2,4-dioxo-1,4-dihydropyrido[2,3-d]pyrimidin-3(2H)-yl]cyclohexyl}-1,5-dimethyl-1H-pyrazole-3-carboxamide] was tested. Which IC50 did it give?
Answer: 0.0158 nM

Question: Which IC50 does the source give for `CCCN1CCN(Cc2ccc(-c3cccc(-n4c(=O)n([C@H]5CC[C@@H](NC(=O)C6(N(C)C)CC6)CC5)c(=O)c5cc(F)cnc54)c3)cc2)CC1` [Example 208, 1-(dimethylamino)-N-{cis-4-[6-fluoro-2,4-dioxo-1-{4′-[(4-propylpiperazin-1-yl)methyl]biphenyl-3-yl}-1,4-dihydropyrido[2,3-d]pyrimidin-3(2H)-yl]cyclohexyl} cyclopropanecarboxamide] here?
Answer: 0.0126 nM

Question: For `C[C@@H]1CN(Cc2ccc(-c3cccc(-n4c(=O)n([C@H]5CC[C@@H](NC(=O)c6cn7c(n6)CCCC7)CC5)c(=O)c5cc(F)cnc54)c3)cc2)C[C@H](C)O1` [Example 138, N-{cis-4-[1-(4′-{[(2R,6S)-2,6-dimethylmorpholin-4-yl]methyl}biphenyl-3-yl)-6-fluoro-2,4-dioxo-1,4-dihydxopyrido[2,3-d]pyrimidin-3(2H)-yl]cyclohexyl}-5,6,7,8-tetrahydroimidazo[1,2-a]pyridine-2-carboxamide], which IC50 is on record?
Answer: 0.00316 nM

Question: How did the IC50 turn out when `Cc1cc(C(=O)N[C@H]2CC[C@@H](n3c(=O)c4cc(F)cnc4n(-c4cccc(-c5ccc(CN6CCN(C7CCCC7)CC6)cc5)c4)c3=O)CC2)nn1C` [Example 215, N-{cis-4-[1-{4′-[(4-cyclopentylpiperazin-1-yl)methyl]biphenyl-3-yl}-6-fluoro-2,4-dioxo-1,4-dihydropyrido[2,3-d]pyrimidin-3(2H)-yl]cyclohexyl}-1,5-dimethyl-1H-pyrazole-3-carboxamide] was run?
Answer: 0.0316 nM

Question: How did the IC50 turn out when `Cc1cc(C(=O)N[C@H]2CC[C@@H](n3c(=O)c4cc(F)cnc4n(-c4cccc(-c5ccc(CN6CCOCC6)cc5)c4)c3=O)CC2)nn1C` [Example 108, N-{cis-4-[6-fluoro-1-[4′-(morpholin-4-ylmethyl)biphenyl-3-yl]-2,4-dioxo-1,4-dihydropyrido[2,3-d]pyrimidin-3(2H)-yl]cyclohexyl}-1,5-dimethyl-1H-pyrazole-3-carboxamide] was run?
Answer: 0.00794 nM

Question: With `CN(C)Cc1cc(F)ccc1-c1cccc(-n2c(=O)n([C@H]3CC[C@@H](NC(=O)c4cn5cc(F)ccc5n4)CC3)c(=O)c3cc(F)cnc32)c1` [Example 273, N-{cis-4-[1-{2′-[(Dimethylamino)methyl]-4′-fluorobiphenyl-3-yl}-6-fluoro-2,4-dioxo-1,4-dihydropyrido[2,3-d]pyrimidin-3(2H)-yl]cyclohexyl}-6-fluoroimidazo[1,2-a]pyridine-2-carboxamide] as the compound, how does the IC50 read?
Answer: 0.00398 nM

Question: `CN(C)C1(C(=O)N[C@H]2CC[C@@H](n3c(=O)c4cc(F)cnc4n(-c4cccc(-c5ccccc5)c4)c3=O)CC2)CC1` [Example 53, N-[cis-4-(1-biphenyl-3-yl-6-fluoro-2,4-dioxo-1,4-dihydropyrido[2,3-d]pyrimidin-3(2H)-yl)cyclohexyl]-1-(dimethylamino)cyclopropanecarboxamide] was tested. Which IC50 did it give?
Answer: 0.0158 nM

Question: How did the IC50 turn out when `CC(C)N1CCN(Cc2ccc(-c3cccc(-n4c(=O)n([C@H]5CC[C@@H](NC(=O)c6ccsc6)CC5)c(=O)c5cc(F)cnc54)c3)cc2)CC1` [Example 245, N-{cis-4-[6-fluoro-1-{4′-[(4-isopropylpiperazin-1-yl)methyl]biphenyl-3-yl}-2,4-dioxo-1,4-di-hydropyrido[2,3-d]pyrimidin-3(2H)-yl]cyclohexyl}thiophene-3-carboxamide] was run?
Answer: 0.02 nM
